In the NIST ThermoML archive (doi:10.1016/j.jct.2017.07.012) one finds mass density and activity coefficient data, which are given here for five compounds.

The conditions of series [1]: 101.33 kPa, Liquid, Vibrating tube method.
Series [2] in a line: activity coefficient (dimensionless); of the first substance listed, at infinite dilution; xn = mol fraction of the nth substance listed. Conditions: 101.33 kPa, Liquid, Chromatography, x1 = 0.

The structures appear in SMILES notation. ± gives the expanded uncertainty stated by the source.

As to `CCCCn1cc[n+](C)c1.[O-][Cl+3]([O-])([O-])[O-]` [1-butyl-3-methylimidazolium perchlorate], the mass density in series [1] (303.15 K) was found to be 1247.87 ± 2.4 kg/m3; in series [1] (313.15 K) it was 1240.83 ± 2.4 kg/m3; in series [1] (323.15 K) it was 1233.88 ± 2.4 kg/m3; in series [1] (333.15 K) it was 1227.01 ± 2.4 kg/m3; in series [1] (343.15 K), 1220.19 ± 2.4 kg/m3; in series [1] (353.15 K) it was 1213.44 ± 2.4 kg/m3.
Turning to `CC(C)CC(C)(C)C` [2,2,4-trimethylpentane] + CCCCn1cc[n+](C)c1.[O-][Cl+3]([O-])([O-])[O-], the activity coefficient turned out to be 100 ± 11 in series [2] (303.15 K); 102 ± 11 in series [2] (313.15 K); 107 ± 11 in series [2] (323.15 K); 119 ± 12 in series [2] (333.15 K); 122 ± 13 in series [2] (343.15 K); 125 ± 13 in series [2] (353.15 K).
As for `CCCCCCCCC` [nonane] + CCCCn1cc[n+](C)c1.[O-][Cl+3]([O-])([O-])[O-], the activity coefficient came out at 151 ± 16 in series [2] (303.15 K); 142 ± 15 in series [2] (313.15 K); 142 ± 15 in series [2] (323.15 K); 137 ± 14 in series [2] (333.15 K); 135 ± 14 in series [2] (343.15 K); 133 ± 14 in series [2] (353.15 K).
Consider `CCC(C)O` (centres undefined) [butan-2-ol] + CCCCn1cc[n+](C)c1.[O-][Cl+3]([O-])([O-])[O-], for which the activity coefficient in series [2] (313.15 K) is 2.91 ± 0.31; in series [2] (323.15 K), 2.66 ± 0.28; in series [2] (333.15 K), 2.61 ± 0.27; in series [2] (343.15 K) it was 2.47 ± 0.26; in series [2] (353.15 K) it was 2.37 ± 0.25.
Turning to `CC#N` [acetonitrile] + CCCCn1cc[n+](C)c1.[O-][Cl+3]([O-])([O-])[O-], the activity coefficient in series [2] (303.15 K) was 0.61 ± 0.07; in series [2] (313.15 K), 0.62 ± 0.07; in series [2] (323.15 K) it was 0.63 ± 0.07; in series [2] (333.15 K), 0.65 ± 0.07; in series [2] (343.15 K), 0.67 ± 0.07; in series [2] (353.15 K), 0.69 ± 0.07.
